Each structure is given as a SMILES string. Calls of active or inactive are those of the source. The rule behind the calls is not given here.

The subject of test [1] is MDA-MB-231. Briefly: Anti-invasive activity in human MDA-MB-231 cells assessed as relative invasion at 5 to 50 uM by scratch wound healing assay. It is filed as functional, cell-based. The conditions noted are these: dose 5-50 µM.
Test [2] addresses T1, Urokinase-type plasminogen activator/surface receptor (Homo sapiens, UniProt P00749+Q03405). Nature of the test: Inhibition of uPAR/uPA (unknown origin) interaction assessed as dissociation constant by fluorescence polarization (FP) assay. It counts as protein assay. On the technique in general: In fluorescence polarisation assays a small probe gives low polarisation when free and higher when bound to something large.

Test [3] has as its system MDA-MB-231. Briefly: Antimigratory activity in human MDA-MB-231 cells assessed as scratch closure speed at 5 to 50 uM by scratch wound healing assay. It is filed as functional, cell-based. The note with it: dose 5-50 µM.
Test [4] concerns the target T1, Urokinase-type plasminogen activator/surface receptor. Briefly: Inhibition of uPAR/uPA (unknown origin) interaction by ELISA. It counts as protein assay. In general terms: An ELISA detects its analyte on a solid surface through an enzyme-linked reagent.
Test [5] has as its system MDA-MB-231. Nature of the test: Antimigratory activity in human MDA-MB-231 cells assessed as relative migration at 5 to 50 uM by scratch wound healing assay. It is filed as functional, cell-based. The note with it: dose 5-50 µM.

A word on the Ki: it is the equilibrium dissociation constant of an inhibitor or competing ligand from its target. By IC50 is commonly meant the concentration needed to halve the response being measured. Low readings indicate higher potency, high ones lower potency. `NCCCC[C@H](C(=O)N1CCN([C@H](Cc2ccccc2)C(N)=O)CC1)N1CCN(C(=O)[C@H](N)CO)CC1`: the result in test [1] and in test [3] was Active. Also, the Ki in test [2] came to 2.75 µM. This compound returned an IC50 in test [4] of 3.06 µM.
Regarding `Cc1cccc2c(C(=O)N3CCN(c4c(C)n(C)c(=O)n(C)c4=O)CC3)cc(-c3ccccc3)nc12`, the Ki in test [2] turned out to be 2.5 µM. It took 15.5 µM to reach half-maximal inhibition in test [4] (IC50).
As for `NCCCC[C@H](C(=O)N1CCN([C@@H](CO)C(N)=O)CC1)n1cc([C@@H](Cc2ccccc2)N2C(=O)N[C@@H](CO)C2=O)nn1`, the Ki in test [2] came out at 2.2 µM. Further, in test [5], the result was Active. Also, the IC50 in test [4] amounted to 2.45 µM.
With `NCCCC[C@H](C(=O)N1CCN([C@@H](Cc2ccccc2)C(N)=O)CC1)N1CCN(C(=O)[C@H](N)CO)CC1`, in test [2], the inhibition constant (Ki) was determined as 6.2 µM. The compound also gave an IC50 in test [4] of 3.06 µM.
Taken in the same sequence, the figures for `NC(=O)C[C@H](C(=O)N1CCN([C@H](CO)C(N)=O)CC1)N1CCN(C(=O)[C@H](N)Cc2ccccc2)CC1` were 13.2 µM and 14.7 µM.
Taken in the same sequence, the figures for `CC[C@H](C)[C@@H](C(N)=O)n1cc([C@@H](CO)NC(=O)N2CCN([C@@H](CO)C(=O)N3CCN([C@@H](CCCCN)C(=O)O)CC3)CC2)nn1` were 2.56 µM and 2.85 µM.
The like results for `CC[C@H](C)[C@@H](C(N)=O)n1cc([C@@H](CO)N2C(=O)N[C@@H](Cc3ccccc3)C2=O)nn1` were, in that order, 7.5 µM and 8.35 µM.
In the case of `Cc1ccc(N2C(=O)C(O)=C(C(=O)c3ccc(Cl)cc3)C2c2cccc(F)c2)cc1Br` (centres undefined), the inhibitory constant (Ki) in test [2] was 0.7 µM. The compound also returned an IC50 in test [4] of 18.4 µM.

These data come from ChEMBL document CHEMBL5104189, “Piptide Chemotypes for Perturbation of the Interaction of Urokinase with Its Receptor” (J Med Chem, 2022).
